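Results reflect a 48-hour exposure of cells in 96-well plates to compound at five concentrations. GI50 = concentration required for 50% inhibition of growth. TGI denotes the concentration required for complete inhibition of growth.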
Columns and labels:
Test in all cases: growth of human tumour cells (NCI), 48 h; in the data active means GI50 below about 0.43 µM; inactive means the rest
[1] = tested on: UACC-62 melanoma
[2] = tested on: SK-MEL-2 melanoma
[3] = tested on: UACC-257 melanoma
[4] = tested on: SK-MEL-5 melanoma
[5] = tested on: PC-3 prostate
[6] = tested on: DU-145 prostate
[7] = tested on: T-47D breast
[8] = tested on: TK-10 renal
[9] = tested on: BT-549 breast
[10] = tested on: CAKI-1 renal
[11] = tested on: EKVX NSCLC
[12] = tested on: SK-OV-3 ovarian
[13] = tested on: OVCAR-3 ovarian
[14] = tested on: HOP-62 NSCLC
[15] = tested on: SNB-19 CNS
[16] = tested on: RXF 393 renal
[17] = tested on: UO-31 renal
[18] = tested on: SR leukemia
[19] = tested on: MDA-MB-231 breast
[20] = tested on: LOX IMVI melanoma
[21] = tested on: A498 renal
[22] = tested on: NCI-H460 lung
[23] = tested on: RPMI-8226 leukemia
[24] = tested on: MOLT-4 leukemia
[25] = tested on: 786-0 renal
[26] = tested on: KM12 colon
[27] = tested on: NCI-H23 lung
[28] = tested on: NCI-H522 lung
[29] = tested on: U251 CNS
[30] = tested on: NCI-H226 lung
[31] = tested on: K-562 leukemia
[32] = tested on: SF-295 CNS
[33] = tested on: MALME-3M melanoma
[34] = tested on: SNB-75 CNS
[35] = tested on: HCT-116 colon
[36] = tested on: SK-MEL-28 melanoma
[37] = tested on: HT29 colon
[38] = tested on: OVCAR-8 ovarian
[39] = tested on: COLO 205 colon
[40] = tested on: SN12C renal
[41] = tested on: ACHN renal
[42] = tested on: MDA-MB-435
[43] = tested on: SF-268 CNS
[44] = tested on: OVCAR-4 ovarian
[45] = tested on: SW-620 colon
[46] = tested on: HL-60(TB) leukemia
[47] = tested on: SF-539 CNS
[48] = tested on: HCC-2998 colon
[49] = tested on: HCT-15 colon
[50] = tested on: A549 NSCLC
[51] = tested on: MCF7 breast
[52] = tested on: IGROV1 ovarian
[53] = tested on: CCRF-CEM leukemia

COc1nc(N(C)O)nc(N(C)O)n1
inactive: GI50 [1] 2.28 µM | GI50 [2] 6.1 µM | GI50 [3] 3.52 µM | GI50 [4] 1.47 µM | GI50 [5] 3.1 µM | GI50 [6] 0.858 µM | GI50 [7] 4.51 µM | GI50 [8] 1.97 µM | GI50 [9] 3.16 µM | GI50 [10] 0.491 µM | GI50 [11] 1.56 µM | GI50 [12] 1.75 µM | GI50 [13] 0.794 µM | GI50 [14] 0.442 µM | GI50 [15] 2.38 µM | GI50 [16] 1.95 µM | GI50 [17] 1.13 µM | GI50 [19] 3.54 µM | GI50 [20] 0.895 µM | GI50 [21] 7.19 µM | GI50 [22] 0.454 µM | GI50 [23] 1.32 µM | GI50 [24] 0.885 µM | GI50 [25] 3.74 µM | GI50 [26] 2.99 µM | GI50 [27] 2.14 µM | GI50 [28] 2.53 µM | GI50 [29] 0.716 µM | GI50 [30] 2.48 µM | GI50 [31] 2.94 µM | GI50 [32] 2.2 µM | GI50 [33] 2.22 µM | GI50 [34] 10 µM | GI50 [36] 2.41 µM | GI50 [37] 1.03 µM | GI50 [38] 2.48 µM | GI50 [39] 1.24 µM | GI50 [40] 2.25 µM | GI50 [41] 0.625 µM | GI50 [42] 3.76 µM | GI50 [43] 1.16 µM | GI50 [44] 2.33 µM | GI50 [45] 2.57 µM | GI50 [46] 1.68 µM | GI50 [47] 1.26 µM | GI50 [48] 2.25 µM | GI50 [49] 0.519 µM | GI50 [50] 1.39 µM | GI50 [51] 2.07 µM | GI50 [52] 0.632 µM | GI50 [53] 0.624 µM
33.2 µM: TGI [25]
55.4 µM: TGI [30]
4.35 µM: TGI [18]
8.62 µM: TGI [22]
24 µM: TGI [33]
active: GI50 [18] 0.391 µM | GI50 [35] 0.402 µM
9.92 µM: TGI [1]
23.1 µM: TGI [4]
9.1 µM: TGI [46]
9.69 µM: TGI [32] | TGI [47]
6.3 µM: TGI [14]
3.88 µM: TGI [35]
17.3 µM: TGI [10]
80.5 µM: TGI [21]
> 100 µM: TGI [2] | TGI [3] | TGI [5] | TGI [6] | TGI [7] | TGI [8] | TGI [9] | TGI [11] | TGI [12] | TGI [13] | TGI [15] | TGI [16] | TGI [17] | TGI [19] | TGI [20] | TGI [23] | TGI [24] | TGI [26] | TGI [27] | TGI [28] | TGI [29] | TGI [31] | TGI [34] | TGI [36] | TGI [37] | TGI [38] | TGI [39] | TGI [40] | TGI [41] | TGI [42] | TGI [43] | TGI [44] | TGI [45] | TGI [48] | TGI [49] | TGI [50] | TGI [51] | TGI [52] | TGI [53]

Source: PubChem BioAssay (NCI)
